Earlier results as cited in US20170274058A1, “Cancer Stem Cell-Targeted Cancer Therapy” (priority 2006, published 2017).
Structures can show the parent of a compound that is named as a salt.

System: cancer stem cells, including leukemia stem cells
Conditions: background statement, references in Table 1

| SMILES | resistance of cancer stem cells to the therapy |
| --- | --- |
| Nc1ccn([C@@H]2O[C@H](CO)[C@@H](O)[C@@H]2O)c(=O)n1 [Ara-C, cytarabine] | relatively resistant |
| Cc1ccc(NC(=O)c2ccc(CN3CCN(C)CC3)cc2)cc1Nc1nccc(-c2cccnc2)n1 [Gleevec®, imatinib mesylate] | relatively resistant |
| CC(C)C[C@H](NC(=O)[C@H](Cc1ccccc1)NC(=O)c1cnccn1)B(O)O [Velcade®] | relatively resistant |
| COc1cccc2c1C(=O)c1c(O)c3c(c(O)c1C2=O)C[C@@](O)(C(C)=O)C[C@@H]3O[C@H]1C[C@H](N)[C@H](O)[C@H](C)O1 [daunorubicin] | relatively resistant |
